These results are taken from PMC8522722, “Safety and Pharmacokinetics in Human Volunteers of Taniborbactam (VNRX-5133), a Novel Intravenous β-Lactamase Inhibitor” (Antimicrobial Agents and Chemotherapy, 2021).

On the set-up of data set [1]: species or system human. Particulars: in vivo. The source says:
To assess possible metabolites of taniborbactam, plasma and urine samples were pooled across subjects by time points, processed, and analyzed by ultra-high performance liquid chromatography tandem mass spectrometry with a quadrupole time-of-flight mass spectrometer, for acquisition of high-resolution accurate mass data, in positive mode with electrospray ionization, incorporating in-line UV detection with a photodiode array detector (Waters Acquity UPLC). The acquired chromatographic and mass spectral data were compared to analogous data obtained for the corresponding predose and placebo-dose samples to identify metabolites potentially associated with taniborbactam metabolism. Chromatographic peaks observed to be unique to the samples were subject to investigation by mass spectrometric techniques.

The subject of data set [2] is Pseudomonas aeruginosa isolates. Also noted: method as in ref 13, 14 = [13]; 13 Vidales A , Hackel M , Wise M , Sahm D . 2020 . Antimicrobial activity of cefepime in combination with taniborbactam (formerly VNRX-5133) against clinical isolates of Enterobacterales collected fro || [14]; 14 Kalamatas J , Hackel M , Wise M , Sahm D . 2020 . Antimicrobial activity of cefepime in combination with taniborbactam (formerly VNRX-5133) against a 2018–2019 surveillance collection of Pseudomona. Particulars: cited from earlier work.

Data set [3] has as its system cefepime-resistant β-lactamase-producing pathogens. Set-up: method as in ref 15, 16 = [15]; 15 Georgiou P-C , Siopi M , Tsala M , Lagarde C , Kloezen W , Donnelly R , Meletiadis J , Mouton J . 2018 . VNRX-5133, a novel broad-spectrum beta-lactamase inhibitor, enhances the activity of cefepim || [16]; 16 Weiss W , Pulse M , Nguyen P , Valtierra D , Peterson K , Carter K , Pevear D , Burns C , Xerri L . 2018 . Efficacy of cefepime/VNRX-5133, a novel beta-lactamase inhibitor combination, against ceph. Particulars: cited from earlier work.

With `NCCN[C@H]1CC[C@H](CC(=O)N[C@H]2Cc3cccc(C(=O)O)c3OB2O)CC1` [Taniborbactam], the “biotransformation products with a detectable UV response in pooled plasma samples” value in data set [1] is “no significant taniborbactam biotransformation products”. Besides, the “potentiation of cefepime activity as measured by the MIC90” value in data set [2] was 4 fold. In data set [3], the “in vivo efficacy of cefepime” value is reported as “restored the in vivo efficacy of cefepime”.
